The values below are quoted from earlier work in patent publication US20130296440A1 (CHROMADEX INC., priority 2012, published 2013).

Like-named read-outs stand apart in the source and are kept apart here.

In one data set the target is T1, 5-LOX (Homo sapiens, UniProt P09917).
T1 construct: endogenous in cells
T1 sequence (P09917 1-674): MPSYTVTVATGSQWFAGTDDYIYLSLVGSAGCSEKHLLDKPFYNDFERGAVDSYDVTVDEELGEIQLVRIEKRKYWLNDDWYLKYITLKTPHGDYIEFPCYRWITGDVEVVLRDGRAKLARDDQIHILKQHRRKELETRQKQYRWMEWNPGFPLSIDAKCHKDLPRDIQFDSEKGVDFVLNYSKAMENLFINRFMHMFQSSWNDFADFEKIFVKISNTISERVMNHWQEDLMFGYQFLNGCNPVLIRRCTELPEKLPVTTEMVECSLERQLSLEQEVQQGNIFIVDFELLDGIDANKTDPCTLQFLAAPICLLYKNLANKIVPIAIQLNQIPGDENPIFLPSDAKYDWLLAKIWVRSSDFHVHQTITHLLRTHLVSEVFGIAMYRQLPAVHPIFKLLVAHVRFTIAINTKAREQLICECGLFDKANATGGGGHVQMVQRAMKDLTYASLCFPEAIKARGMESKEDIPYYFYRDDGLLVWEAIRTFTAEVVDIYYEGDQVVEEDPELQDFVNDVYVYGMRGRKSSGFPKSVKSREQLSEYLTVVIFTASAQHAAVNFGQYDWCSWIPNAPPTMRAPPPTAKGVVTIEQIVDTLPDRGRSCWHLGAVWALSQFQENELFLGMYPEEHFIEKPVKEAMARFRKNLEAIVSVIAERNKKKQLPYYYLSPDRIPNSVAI
The conditions noted are these: cultured cells.

The conditions of data set [1]: for bioavailability: in vivo; for half life t1/2: in blood.
In the next data set the test system is COX-2. Conditions: cultured cells.
The test system of a further data set is PLA2. Conditions: cultured cells.
The next data set concerns the target T2, CYP1A1 (Homo sapiens, UniProt P04798).
T2 sequence (P04798 1-512): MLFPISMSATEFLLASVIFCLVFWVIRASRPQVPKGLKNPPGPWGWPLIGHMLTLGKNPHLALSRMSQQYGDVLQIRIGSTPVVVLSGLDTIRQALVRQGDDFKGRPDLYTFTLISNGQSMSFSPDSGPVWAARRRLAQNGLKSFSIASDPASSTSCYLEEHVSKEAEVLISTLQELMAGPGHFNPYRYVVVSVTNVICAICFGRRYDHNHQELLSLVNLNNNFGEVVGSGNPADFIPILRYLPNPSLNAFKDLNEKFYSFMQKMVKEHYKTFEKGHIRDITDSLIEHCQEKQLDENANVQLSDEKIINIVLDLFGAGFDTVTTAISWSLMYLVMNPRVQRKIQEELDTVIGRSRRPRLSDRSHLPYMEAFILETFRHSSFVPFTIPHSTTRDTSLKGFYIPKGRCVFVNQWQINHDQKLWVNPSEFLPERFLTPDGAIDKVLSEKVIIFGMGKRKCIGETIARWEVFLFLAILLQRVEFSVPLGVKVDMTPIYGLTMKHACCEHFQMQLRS
The conditions noted are these: human recombinant.

The conditions of data set [2]: mice; 28-day; 160 pound human equivalent doses of approximately 125 mg/day, 1.25 g/day and 12.5 g/day.
A further data set has as its target T3, PPAR-alpha (Rattus norvegicus, UniProt P37230).
T3 construct: Using a luciferase reporter gene construct containing the peroxisome proliferator response element promoter region; endogenous in cells; host or cells: H4IIEC3 rat liver cells
T3 sequence (P37230 1-468): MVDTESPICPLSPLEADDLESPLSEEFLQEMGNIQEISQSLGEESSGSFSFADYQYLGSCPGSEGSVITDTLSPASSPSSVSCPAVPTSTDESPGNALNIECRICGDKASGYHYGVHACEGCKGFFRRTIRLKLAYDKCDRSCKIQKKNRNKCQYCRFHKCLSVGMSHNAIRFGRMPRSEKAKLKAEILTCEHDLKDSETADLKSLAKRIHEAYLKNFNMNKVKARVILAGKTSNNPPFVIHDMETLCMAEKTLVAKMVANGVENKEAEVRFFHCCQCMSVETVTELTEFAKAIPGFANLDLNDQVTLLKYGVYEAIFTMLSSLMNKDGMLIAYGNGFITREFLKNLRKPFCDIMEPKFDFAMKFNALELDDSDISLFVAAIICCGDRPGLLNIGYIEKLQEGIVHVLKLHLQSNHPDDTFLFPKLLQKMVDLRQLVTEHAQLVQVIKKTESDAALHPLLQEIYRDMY
The conditions noted are these: for PPAR-alpha activation: luciferase reporter.

Another data set has as its target T4, CYP1B1 (Homo sapiens, UniProt Q16678).
T4 sequence (Q16678 1-543): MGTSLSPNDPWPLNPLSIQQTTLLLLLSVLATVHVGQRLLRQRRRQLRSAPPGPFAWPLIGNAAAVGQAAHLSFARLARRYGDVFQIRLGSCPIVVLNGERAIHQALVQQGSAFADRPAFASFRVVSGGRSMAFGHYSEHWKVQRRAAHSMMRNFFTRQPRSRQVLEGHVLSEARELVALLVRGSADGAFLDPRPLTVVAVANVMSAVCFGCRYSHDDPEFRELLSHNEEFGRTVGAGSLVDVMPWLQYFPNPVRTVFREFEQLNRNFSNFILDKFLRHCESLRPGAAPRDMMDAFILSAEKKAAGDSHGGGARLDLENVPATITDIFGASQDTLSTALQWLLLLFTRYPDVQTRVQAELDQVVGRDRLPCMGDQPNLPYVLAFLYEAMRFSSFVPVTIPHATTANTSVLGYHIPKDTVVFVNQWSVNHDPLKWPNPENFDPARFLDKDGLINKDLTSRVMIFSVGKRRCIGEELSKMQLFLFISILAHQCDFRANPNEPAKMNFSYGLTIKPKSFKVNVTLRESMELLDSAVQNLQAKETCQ
Conditions: human recombinant.

The target of the next data set is CYP2E1 (Homo sapiens, UniProt P05181).
The test system of another data set is rat smooth muscle cells. Conditions: in vitro.
In another data set the test system is H4IIEC3 rat liver cells. The conditions noted are these: 100 μM.
[3] abbreviates: 100 μM, H4IIEC3 rat liver cells.

Sequence of CYP2E1 (P05181 whole entry, species assumed): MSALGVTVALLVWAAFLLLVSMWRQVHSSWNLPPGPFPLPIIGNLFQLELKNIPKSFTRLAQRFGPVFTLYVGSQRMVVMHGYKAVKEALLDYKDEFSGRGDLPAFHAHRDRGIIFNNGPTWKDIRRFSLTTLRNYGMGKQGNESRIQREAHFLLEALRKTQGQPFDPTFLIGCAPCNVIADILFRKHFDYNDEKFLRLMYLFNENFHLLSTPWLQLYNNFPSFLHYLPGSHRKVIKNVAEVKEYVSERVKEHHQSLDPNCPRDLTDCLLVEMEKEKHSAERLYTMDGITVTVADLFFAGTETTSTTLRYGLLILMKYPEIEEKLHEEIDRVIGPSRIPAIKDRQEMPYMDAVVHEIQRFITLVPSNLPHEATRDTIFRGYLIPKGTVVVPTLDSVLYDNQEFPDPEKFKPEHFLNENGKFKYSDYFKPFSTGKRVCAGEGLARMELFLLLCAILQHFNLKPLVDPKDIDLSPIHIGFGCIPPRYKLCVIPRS

With `COc1cc(/C=C/C(=O)CC(=O)/C=C/c2ccc(O)c(OC)c2)ccc1O` [curcumin, (1E,6E)-1,7-Bis(4-hydroxy-3-methoxyphenyl)-1,6-heptadiene-3,5-dione], the water solubility entry was “minimally water soluble”. Further, the 5-LOX activity result on 5-LOX is “inhibit”. For the same molecule, in [1], the bioavailability entry is reported as “poor bioavailability”. Moreover, the COX-2 activity result in the data set on COX-2 is “inhibit”. Besides, the PLA2 activity entry in the data set with PLA2 was “inhibit”.
Take `COc1cc(/C=C/c2ccc(O)cc2)cc(OC)c1` [pterostilbene, trans-3,5-dimethoxy-4′-hydroxystilbene]: on CYP1A1, the “inhibition of CYP1A1 isozyme” value is listed as “inhibit”. Besides, the “local or systemic toxicity” value in data set [2] is “no local or systemic toxicity”. Further, at PPAR-alpha (setting [3]), the “PPAR-alpha activation relative to 100 μM of ciprofibrate” value was ~2 fold and the PPAR-alpha activation is reported as 8 fold over the control. At PPAR-alpha (300 μM, H4IIEC3 rat liver cells), the PPAR-alpha activation is given as 14 fold over the control. Besides, the “PPAR-alpha activation within a group of similar stilbenes” value on PPAR-alpha (in a manner similar to ciprofibrate (Rimando 2005)) was “activated PPAR-alpha”. Besides, the “inhibition of CYP1B1 isozyme” value at CYP1B1 is “inhibit”. The “inhibition of CYP2E1” value on CYP2E1 is “not”. Besides, in [1], the “half life t1/2” value was 74 to 105 min and the bioavailability result was “orally bioavailable”. Moreover, the “proliferation of rat smooth muscle cells” value with rat smooth muscle cells is “inhibit”.
On to `Oc1ccc(C=Cc2cc(O)cc(O)c2)cc1` [resveratrol, reference compound], for which, in the data set with H4IIEC3 rat liver cells, the toxicity to cells result was “toxic to cells”. For the same molecule, in data set [1], the “half life t1/2” value is 10 to 14 min and the bioavailability result was “poor bioavailability”.
